The target of the first assay is T1, N-type Ca2+ channels in IMR-32 cells (Homo sapiens, UniProt Q00975).
T1 construct: host or cells: IMR-32 cells, differentiated with dibutyryl cAMP and bromodeoxyuridine
T1 sequence (Q00975 whole entry): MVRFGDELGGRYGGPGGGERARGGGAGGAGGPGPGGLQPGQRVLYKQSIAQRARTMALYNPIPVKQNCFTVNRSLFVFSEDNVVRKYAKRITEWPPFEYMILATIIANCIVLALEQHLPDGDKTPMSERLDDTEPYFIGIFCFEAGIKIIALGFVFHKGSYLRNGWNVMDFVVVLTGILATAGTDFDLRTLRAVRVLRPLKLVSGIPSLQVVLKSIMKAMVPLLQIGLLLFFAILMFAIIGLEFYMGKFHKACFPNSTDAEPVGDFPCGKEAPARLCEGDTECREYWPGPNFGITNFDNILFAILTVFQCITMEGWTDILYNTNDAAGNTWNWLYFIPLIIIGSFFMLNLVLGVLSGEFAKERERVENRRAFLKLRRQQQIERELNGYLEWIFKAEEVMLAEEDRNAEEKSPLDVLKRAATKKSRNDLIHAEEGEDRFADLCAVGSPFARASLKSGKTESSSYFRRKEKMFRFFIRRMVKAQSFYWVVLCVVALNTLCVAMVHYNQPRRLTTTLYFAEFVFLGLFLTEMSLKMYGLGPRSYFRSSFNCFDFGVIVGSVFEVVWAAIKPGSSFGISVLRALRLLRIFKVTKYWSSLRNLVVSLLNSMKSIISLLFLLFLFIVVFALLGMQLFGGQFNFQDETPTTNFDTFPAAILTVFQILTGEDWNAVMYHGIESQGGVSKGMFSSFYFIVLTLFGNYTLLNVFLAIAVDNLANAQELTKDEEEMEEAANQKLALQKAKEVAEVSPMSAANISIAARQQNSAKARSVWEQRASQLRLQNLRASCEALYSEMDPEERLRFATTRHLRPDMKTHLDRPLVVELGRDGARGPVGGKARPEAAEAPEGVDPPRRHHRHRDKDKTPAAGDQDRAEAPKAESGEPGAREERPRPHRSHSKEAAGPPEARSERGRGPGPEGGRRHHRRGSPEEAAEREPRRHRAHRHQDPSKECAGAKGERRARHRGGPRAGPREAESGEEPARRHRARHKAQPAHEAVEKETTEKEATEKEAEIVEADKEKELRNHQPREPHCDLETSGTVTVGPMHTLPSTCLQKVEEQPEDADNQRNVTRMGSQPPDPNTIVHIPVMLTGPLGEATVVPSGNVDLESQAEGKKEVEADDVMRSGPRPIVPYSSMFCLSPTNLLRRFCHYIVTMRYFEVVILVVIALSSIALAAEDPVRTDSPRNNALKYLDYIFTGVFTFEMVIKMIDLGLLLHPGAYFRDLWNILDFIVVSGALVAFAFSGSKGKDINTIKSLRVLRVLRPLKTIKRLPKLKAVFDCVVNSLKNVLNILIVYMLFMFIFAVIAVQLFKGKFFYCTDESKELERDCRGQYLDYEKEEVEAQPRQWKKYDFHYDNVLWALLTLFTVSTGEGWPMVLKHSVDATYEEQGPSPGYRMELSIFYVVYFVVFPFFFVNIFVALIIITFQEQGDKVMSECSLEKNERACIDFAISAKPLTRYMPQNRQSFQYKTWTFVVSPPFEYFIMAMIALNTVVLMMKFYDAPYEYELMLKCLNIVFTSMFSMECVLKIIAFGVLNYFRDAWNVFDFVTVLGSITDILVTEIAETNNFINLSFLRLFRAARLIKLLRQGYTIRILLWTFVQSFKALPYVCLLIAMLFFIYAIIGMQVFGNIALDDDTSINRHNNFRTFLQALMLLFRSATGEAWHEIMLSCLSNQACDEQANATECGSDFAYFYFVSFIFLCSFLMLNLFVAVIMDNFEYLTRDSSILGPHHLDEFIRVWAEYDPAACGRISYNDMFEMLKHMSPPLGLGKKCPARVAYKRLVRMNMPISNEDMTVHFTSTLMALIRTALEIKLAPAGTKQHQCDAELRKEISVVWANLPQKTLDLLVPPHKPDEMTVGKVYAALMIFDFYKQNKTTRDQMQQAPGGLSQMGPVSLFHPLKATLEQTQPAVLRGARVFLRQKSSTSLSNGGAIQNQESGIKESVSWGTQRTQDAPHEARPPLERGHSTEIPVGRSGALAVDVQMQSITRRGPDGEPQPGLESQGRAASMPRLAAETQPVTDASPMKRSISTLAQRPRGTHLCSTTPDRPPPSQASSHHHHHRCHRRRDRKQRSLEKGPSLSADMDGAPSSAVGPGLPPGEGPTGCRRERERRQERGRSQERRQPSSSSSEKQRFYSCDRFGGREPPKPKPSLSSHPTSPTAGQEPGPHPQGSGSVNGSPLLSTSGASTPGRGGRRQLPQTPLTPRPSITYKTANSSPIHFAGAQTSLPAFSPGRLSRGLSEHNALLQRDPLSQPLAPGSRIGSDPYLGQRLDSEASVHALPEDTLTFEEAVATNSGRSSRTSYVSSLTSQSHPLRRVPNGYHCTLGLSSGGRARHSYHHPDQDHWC
T1 sequence (P54289 25-956 partner limits assumed): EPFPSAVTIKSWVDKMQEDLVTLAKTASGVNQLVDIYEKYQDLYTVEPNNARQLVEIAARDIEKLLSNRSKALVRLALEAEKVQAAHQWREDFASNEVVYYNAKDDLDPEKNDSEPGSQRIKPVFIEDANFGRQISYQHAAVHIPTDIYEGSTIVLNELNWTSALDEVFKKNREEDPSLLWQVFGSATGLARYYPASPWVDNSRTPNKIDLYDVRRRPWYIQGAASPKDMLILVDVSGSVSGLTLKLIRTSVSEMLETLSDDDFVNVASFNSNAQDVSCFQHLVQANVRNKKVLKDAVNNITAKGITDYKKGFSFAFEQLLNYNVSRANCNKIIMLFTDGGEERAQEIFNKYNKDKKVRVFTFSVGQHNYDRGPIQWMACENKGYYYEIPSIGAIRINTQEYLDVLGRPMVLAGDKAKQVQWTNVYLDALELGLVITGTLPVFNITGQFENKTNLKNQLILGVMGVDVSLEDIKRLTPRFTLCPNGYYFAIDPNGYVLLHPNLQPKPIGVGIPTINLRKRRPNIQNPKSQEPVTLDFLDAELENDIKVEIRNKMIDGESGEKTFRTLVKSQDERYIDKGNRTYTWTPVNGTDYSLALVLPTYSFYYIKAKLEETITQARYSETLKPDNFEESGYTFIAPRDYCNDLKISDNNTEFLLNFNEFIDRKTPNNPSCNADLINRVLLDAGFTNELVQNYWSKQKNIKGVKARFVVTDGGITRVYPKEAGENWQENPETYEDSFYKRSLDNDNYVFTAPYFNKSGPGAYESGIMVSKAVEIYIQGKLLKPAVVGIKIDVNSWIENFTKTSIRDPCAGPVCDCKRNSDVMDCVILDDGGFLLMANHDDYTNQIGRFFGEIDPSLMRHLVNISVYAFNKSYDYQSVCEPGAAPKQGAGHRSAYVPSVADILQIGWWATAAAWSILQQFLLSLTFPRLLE
T1 sequence (P54289 957-1103 partner limits assumed): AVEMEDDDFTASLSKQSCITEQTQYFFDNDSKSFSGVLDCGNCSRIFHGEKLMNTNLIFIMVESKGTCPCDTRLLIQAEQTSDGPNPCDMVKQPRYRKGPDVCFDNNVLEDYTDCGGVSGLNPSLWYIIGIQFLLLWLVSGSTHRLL
T1 sequence (P54284 whole entry partner): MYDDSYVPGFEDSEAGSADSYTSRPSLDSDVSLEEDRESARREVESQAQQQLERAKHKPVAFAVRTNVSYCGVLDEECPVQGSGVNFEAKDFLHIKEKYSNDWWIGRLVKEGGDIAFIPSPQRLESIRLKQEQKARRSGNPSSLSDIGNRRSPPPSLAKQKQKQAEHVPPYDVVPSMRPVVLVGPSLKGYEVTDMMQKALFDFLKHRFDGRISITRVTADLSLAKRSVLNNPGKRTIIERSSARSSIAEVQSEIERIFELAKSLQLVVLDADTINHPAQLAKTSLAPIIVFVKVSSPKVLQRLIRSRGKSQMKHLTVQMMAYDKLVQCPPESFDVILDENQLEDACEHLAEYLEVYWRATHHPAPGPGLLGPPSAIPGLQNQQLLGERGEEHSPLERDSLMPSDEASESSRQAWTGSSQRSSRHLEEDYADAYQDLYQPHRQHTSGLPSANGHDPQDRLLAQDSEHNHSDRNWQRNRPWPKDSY
The experiment in a line: Inhibition of N-type calcium flux in IMR-32 cells (Indo-1 fluorescence, nitrendipine present). The note with it: 1 μM. The format is cell-based. The essentials:
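Differentiated IMR-32 cells (7–13 days) were loaded with 5 μM Indo-1 AM, preincubated with compound for 10 min at 30° C, and depolarized with KCl/CaCl2 stimulation solution, with 5 μM nitrendipine blocking L-channels. Peak-minus-basal 400/490 nm emission ratio was plotted against drug concentration, and IC50 came from four-parameter logistic fits.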
On the technique in general: Calcium flux is commonly read through the fluorescence of an indicator in the cells.
In the case of `COc1ccc(S(=O)(=O)N[C@@H](CC(C)C)C(=O)N[C@@H](Cc2ccc(OCc3ccccc3)cc2)C(=O)OC(C)(C)C)cc1` (relative stereo) [Example 103, [S-(R*,R*)]-3-(4-Benzyloxy-phenyl)-2-[2-(4-methoxy-benzenesulfonylamino)-4-methyl-pentanoylamino]-propionic acid tert-butyl ester], the “Inhibition of Calcium Flux in IMR-32 Cells % Inhibition at 1 μM” value is 28%.

In the case of `CC(C)C[C@H](NS(=O)(=O)c1ccc(F)cc1)C(=O)N[C@@H](Cc1ccc(OCc2ccccc2)cc1)C(=O)OC(C)(C)C` (relative stereo) [Example 104, [S-(R*,R*)]-3-(4-Benzyloxy-phenyl)-2-[2-(4-fluoro-benzenesulfonylamino)-4-methyl-pentanoylamino]-propionic acid tert-butyl ester], the “Inhibition of Calcium Flux in IMR-32 Cells % Inhibition at 1 μM” value is on record as 35%. Still for that read-out and setting: with `Cc1ccccc1S(=O)(=O)N[C@@H](CC(C)C)C(=O)N[C@@H](Cc1ccc(OCc2ccccc2)cc1)C(=O)OC(C)(C)C` (relative stereo) [Example 105, [S-(R*,R*)]-3-(4-Benzyloxy-phenyl)-2-[4-methyl-2-(toluene-2-sulfonylamino)-pentanoylamino]-propionic acid tert-butyl ester] the figure was 29%; with `CC(C)C[C@H](NS(=O)(=O)c1cc(Cl)cc(Cl)c1)C(=O)N[C@@H](Cc1ccc(OCc2ccccc2)cc1)C(=O)OC(C)(C)C` (relative stereo) [Example 106, [S-(R*,R*)]-3-(4-Benzyloxy-phenyl)-2-[2-(3,5-dichloro-benzenesulfonylamino)-4-methylpentanoylamino]-propionic acid tert-butyl ester], 32%.

Staying with this assay, now noted: 10 μM.
Consider `CC(C)C[C@H](NS(=O)(=O)c1cccs1)C(=O)N[C@@H](Cc1ccc(OCc2ccccc2)cc1)C(=O)OC(C)(C)C` (relative stereo) [Example 107, [S-(R*,R*)]-3-(4-Benzyloxy-phenyl)-2-[4-methyl-2-(thiophene-2-sulfonylamino)-pentanoylamino]-propionic acid tert-butyl ester], for which the “Inhibition of Calcium Flux in IMR-32 Cells % Inhibition at 10 μM” value was 57%. Take `CC(C)C[C@H](NS(=O)(=O)c1ccc2cccnc2c1)C(=O)N[C@@H](Cc1ccc(OCc2ccccc2)cc1)C(=O)OC(C)(C)C` (relative stereo) [Example 109, [S-(R*,R*)]-3-(4-Benzyloxy-phenyl)-2-[4-methyl-2-(quinoline-7-sulfonylamino)-pentanoylamino]-propionic acid tert-butyl ester]: the “Inhibition of Calcium Flux in IMR-32 Cells % Inhibition at 10 μM” value is 56%. Regarding `Cc1nn(C)c(Cl)c1S(=O)(=O)N[C@@H](CC(C)C)C(=O)N[C@@H](Cc1ccc(OCc2ccccc2)cc1)C(=O)OC(C)(C)C` (relative stereo) [Example 110, [S-(R*,R*)]-3-(4-Benzyloxy-phenyl)-2-[2-(5-chloro-1,3-dimethyl-1H-pyrazole-4-sulfonylamino)-4-methyl-pentanoylamino]-propionic acid tert-butyl ester], the “Inhibition of Calcium Flux in IMR-32 Cells % Inhibition at 10 μM” value came out at 76%.

Consider `CC(C)C[C@H](NC(=O)Cc1c[nH]c2ccccc12)C(=O)C[C@H](Cc1ccc(OCc2ccccc2)cc1)C(=O)OC(C)(C)C` (relative stereo) [Example 113, [S-(R*,R*)]-2-(4-Benzyloxy-benzyl)-5-(2-1H-indol-3-yl-acetylamino)-7-methyl-4-oxo-octanoic acid tert-butyl ester], for which the “Inhibition of Calcium Flux in IMR-32 Cells % Inhibition at 10 μM” value is 83%.

Turning to `CCCCCCC(=O)N[C@@H](CC(C)C)C(=O)N[C@@H](Cc1ccc(OCc2ccccc2)cc1)C(=O)OC(C)(C)C` (relative stereo) [Example 114, [S-(R*,R*)]-3-(4-Benzyloxy-phenyl)-2-(2-heptanoylamino-4-methyl-pentanoylamino)-propionic acid tert-butyl ester], the “Inhibition of Calcium Flux in IMR-32 Cells % Inhibition at 10 μM” value is given as 66%. In the case of `CC(C)C[C@H](NC(=O)C(C)C)C(=O)N[C@@H](Cc1ccc(OCc2ccccc2)cc1)C(=O)OC(C)(C)C` (relative stereo) [Example 115, [S-(R*,R*)]-3-(4-Benzyloxy-phenyl)-2-(2-isobutyrylamino-4-methyl-pentanoylamino)-propionic acid tert-butyl ester], the “Inhibition of Calcium Flux in IMR-32 Cells % Inhibition at 10 μM” value is 71%. The same measure, in the same setting: with `CC(=O)N[C@@H](CC(C)C)C(=O)N[C@@H](Cc1ccc(OCc2ccccc2)cc1)C(=O)OC(C)(C)C` (relative stereo) [Example 116, [S-(R*,R*)]-2-(2-Acetylamino-4-methyl-pentanoylamino)-3-(4-benzyloxy-phenyl)-propionic acid tert-butyl ester] the figure was 53%. The same measure, in the same setting: with `CCC(=O)N[C@@H](CC(C)C)C(=O)N[C@@H](Cc1ccc(OCc2ccccc2)cc1)C(=O)OC(C)(C)C` (relative stereo) [Example 117, [S-(R*,R*)]-3-(4-Benzyloxy-phenyl)-2-(4-methyl-2-propionylamino-pentanoylamino)-propionic acid tert-butyl ester] the figure was 66%. Still for that read-out and setting: with `CCCC(=O)N[C@@H](CC(C)C)C(=O)N[C@@H](Cc1ccc(OCc2ccccc2)cc1)C(=O)OC(C)(C)C` (relative stereo) [Example 118, [S-(R*,R*)]-3-(4-Benzyloxy-phenyl)-2-(2-butyrylamino-4-methyl-pentanoylamino)-propionic acid tert-butyl ester] the figure was 80%; with `CC(C)C[C@H](NC(=O)Cc1cccnc1)C(=O)N[C@@H](Cc1ccc(OCc2ccccc2)cc1)C(=O)OC(C)(C)C` (relative stereo) [Example 119, [S-(R*,R*)]-3-(4-Benzyloxy-phenyl)-2-[4-methyl-2-(2-pyridin-3-yl-acetylamino)pentanoylamino]-propionic acid tert-butyl ester], 65%; with `CC(C)C[C@H](NC(=O)CCc1c[nH]c2ccccc12)C(=O)N[C@@H](Cc1ccc(OCc2ccccc2)cc1)C(=O)OC(C)(C)C` (relative stereo) [Example 120, [S-(R*,R*)]-3-(4-Benzyloxy-phenyl)-2-[2-(3-1H-indol-3-yl-propionylamino)-4-methyl-pentanoylamino]-propionic acid tert-butyl ester], 65%. As to `Cc1nn(-c2ccccc2)nc1C(=O)N[C@@H](CC(C)C)C(=O)N[C@@H](Cc1ccc(OCc2ccccc2)cc1)C(=O)OC(C)(C)C` (relative stereo) [Example 121, [S-(R*,R*)]-3-(4-Benzyloxy-phenyl)-2-{4-methyl-2-[(5-methyl-2-phenyl-2H-[1,2,3]triazole-4-carbonyl)-amino]-pentanoylamino}-propionic acid tert-butyl ester], the “Inhibition of Calcium Flux in IMR-32 Cells % Inhibition at 10 μM” value came to 25%.

Regarding `CC(C)C[C@H](NC(=O)Cc1cccs1)C(=O)N[C@@H](Cc1ccc(OCc2ccccc2)cc1)C(=O)OC(C)(C)C` (relative stereo) [Example 122, [S-(R*,R*)]-3-(4-Benzyloxy-phenyl)-2-[4-methyl-2-(2-thiophen-2-yl-acetylamino)pentanoylamino]-propionic acid tert-butyl ester], the “Inhibition of Calcium Flux in IMR-32 Cells % Inhibition at 10 μM” value is given as 84%. For the compound `CC(C)C[C@H](NC(=O)c1ccno1)C(=O)N[C@@H](Cc1ccc(OCc2ccccc2)cc1)C(=O)OC(C)(C)C` (relative stereo) [Example 123, [S-(R*,R*)]-3-(4-Benzyloxy-phenyl)-2-{2-1(isoxazole-5-carbonyl)-amino]-4-methyl-pentanoylamino}-propionic acid tert-butyl ester], the “Inhibition of Calcium Flux in IMR-32 Cells % Inhibition at 10 μM” value turned out to be 67%. On to `CC(C)C[C@H](NC(=O)c1cccnc1)C(=O)N[C@@H](Cc1ccc(OCc2ccccc2)cc1)C(=O)OC(C)(C)C` (relative stereo) [Example 124, [S-(R*,R*)]-3-(4-Benzyloxy-phenyl)-2-{4-methyl-2-[(pyridine-3-carbonyl)-amino]pentanoylamino}-propionic acid tert-butyl ester], for which the “Inhibition of Calcium Flux in IMR-32 Cells % Inhibition at 10 μM” value is given as 60%. On the same count and under the same terms, with `CC(C)C[C@H](NC(=O)c1cnc2ccccc2n1)C(=O)N[C@@H](Cc1ccc(OCc2ccccc2)cc1)C(=O)OC(C)(C)C` (relative stereo) [Example 126, [S-(R*,R*)]-3-(4-Benzyloxy-phenyl)-2-{4-methyl-2-[(quinoxaline-2-carbonyl)-amino]pentanoylamino}-propionic acid tert-butyl ester] the figure was 28%; with `CC(C)C[C@H](NC(=O)C(F)(F)C(F)(F)F)C(=O)C[C@H](Cc1ccc(OCc2ccccc2)cc1)C(=O)OC(C)(C)C` (relative stereo) [Example 127, [S-(R*,R*)]-2-(4-Benzyloxy-benzyl)-7-methyl-4-oxo-5-(2,2,3,3,3-pentafluoro-propionylamino)-octanoic acid tert-butyl ester], 61%; with `CC(C)C[C@H](NC(=O)C(F)(F)F)C(=O)N[C@@H](Cc1ccc(OCc2ccccc2)cc1)C(=O)OC(C)(C)C` (relative stereo) [Example 128, [S-(R*,R*)]-3-(4-Benzyloxy-phenyl)-2-[4-methyl-2-(2,2,2-trifluoro-acetylamino)pentanoylamino]-propionic acid tert-butyl ester], 78%. As to `CC(C)C[C@H](NC(=O)C(C)(C)C)C(=O)N[C@@H](Cc1ccc(OCc2ccccc2)cc1)C(=O)OC(C)(C)C` (relative stereo) [Example 129, [S-(R*,R*)]-3-(4-Benzyloxy-phenyl)-2-[2-(2,2-dimethyl-propionylamino)-4-methyl-pentanoylamino]-propionic acid tert-butyl ester], the “Inhibition of Calcium Flux in IMR-32 Cells % Inhibition at 10 μM” value was 74%.
